The target of the experiment is crotoxin complex (1:1 complex of crotoxin A and crotoxin B) from Crotalus durissus terrificus venom (Crotalus durissus terrificus, UniProt P0CAS2). The class given is biochemical.
crotoxin complex (1:1 complex of crotoxin A and crotoxin B) from Crotalus durissus terrificus venom, sequence (P0CAS2 whole entry, looked up, one chain of several): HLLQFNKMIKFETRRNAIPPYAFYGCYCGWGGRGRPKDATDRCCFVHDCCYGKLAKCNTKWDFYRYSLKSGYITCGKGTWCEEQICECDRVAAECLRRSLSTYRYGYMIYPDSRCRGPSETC

As to `O=C(CBr)c1ccc(Br)cc1` [p-bromophenacylbromide], the “reaction with p-bromophenacyl bromide” value is recorded as “does not react”.

(Values after patent US5164196A (priority 1990, dated 1992).)
